Source: BindingDB's records for doi:10.1021/cc0600021 (Darmstadt Technical University, 2006)

These compounds were tested against Beta-secretase 1 (Homo sapiens, UniProt P56817) (assay: Fluorescence Resonance Energy Transfer (FRET) Assay). Details: 20 °C.
Procedure: The FRET assay was performed at 20 C on a FLUOstar (BMG Lab Technologies, D-77656 Offenburg) using 96-well microtiter plates (Dynex Microfluor 2, Chantilly, VA).

Chain of Beta-secretase 1 (P56817 whole entry): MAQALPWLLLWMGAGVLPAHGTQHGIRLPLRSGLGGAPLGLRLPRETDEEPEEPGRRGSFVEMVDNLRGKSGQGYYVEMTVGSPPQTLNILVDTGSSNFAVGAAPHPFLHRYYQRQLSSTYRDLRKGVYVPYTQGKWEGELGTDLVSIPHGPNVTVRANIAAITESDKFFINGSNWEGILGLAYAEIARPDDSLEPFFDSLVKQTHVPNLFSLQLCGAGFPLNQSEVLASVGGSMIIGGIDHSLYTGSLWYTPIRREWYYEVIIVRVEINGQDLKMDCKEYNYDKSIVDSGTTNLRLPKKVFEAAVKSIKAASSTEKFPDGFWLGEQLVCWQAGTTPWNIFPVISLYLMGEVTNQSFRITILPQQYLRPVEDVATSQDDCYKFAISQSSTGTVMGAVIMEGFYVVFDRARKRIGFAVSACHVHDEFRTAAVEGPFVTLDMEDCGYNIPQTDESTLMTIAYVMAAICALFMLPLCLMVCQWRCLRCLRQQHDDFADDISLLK

IC50 [µM]	SMILES
212	O=C1CN(Cc2ccccc2)C(=O)C1SCc1cccc(C(F)(F)F)c1 (configuration not stated) [N-Substituted tetramic acid, 92]
194	CC(C)CC1NC(=O)C(SCc2cccc(C(F)(F)F)c2)C1=O (configuration not stated) [Tetramic acid, 25]
> 200	O=C1OC(CCc2ccccc2)C(=O)C1SCc1cccc(C(F)(F)F)c1 (configuration not stated) [Tetramic acid, 77]
200	CC(C)CC1NC(=O)C(SCC(=O)NCc2ccc3c(c2)OCO3)C1=O (configuration not stated) [Tetramic acid, 30]
60	CCC(C)C1NC(=O)C(SCc2cccc(C(F)(F)F)c2)C1=O (configuration not stated) [Tetramic acid, 38]

The next lines start with the compound.

SMILES	IC50 [µM]
CCC(C)C1NC(=O)C(SCc2ccco2)C1=O (configuration not stated) [Tetramic acid, 43]	200
COc1ccc(CN2CC(=O)C(Sc3ccccc3)C2=O)cc1 (configuration not stated) [N-Substituted tetramic acid, 91]	> 200
O=C1CN(Cc2cccc(C(F)(F)F)c2)C(=O)C1Sc1ccccc1 (configuration not stated) [N-Substituted tetramic acid, 89]	> 200
CCC(C)C1NC(=O)C(SCC(=O)NCc2ccc3c(c2)OCO3)C1=O (configuration not stated) [Tetramic acid, 44]	> 200
O=C1NC(Cc2ccccc2)C(=O)C1SCc1ccco1 (configuration not stated) [Tetramic acid, 56]	145
O=C1OC(c2ccccc2)C(=O)C1Sc1ccccc1 (configuration not stated) [Tetramic acid, 72]	105
O=C1OC(c2ccccc2)C(=O)C1SCCc1ccccc1 (configuration not stated) [Tetramic acid, 74]	> 200
